How the values were obtained:
[1] = AUClast in Sprague-Dawley rat at 10 mg/kg, po; assay type: ADME, organism-based; parameters: dose 10 mg/kg, time 0 - last, route oral; conditions: in vivo
[2] = Clearance in Sprague-Dawley rat at 1 mg/kg, iv; assay type: ADME, organism-based; conditions: in vivo
[3] = biological target: T1, Phosphatidylinositol 4,5-bisphosphate 3-kinase catalytic subunit delta isoform (Homo sapiens, UniProt O00329); test: Inhibition of PI3Kdelta (unknown origin) using Biotin-S11S12 as substrate after 120 mins in presence of ATP by ADPGlo luminescence assay
T1 sequence (O00329 whole entry): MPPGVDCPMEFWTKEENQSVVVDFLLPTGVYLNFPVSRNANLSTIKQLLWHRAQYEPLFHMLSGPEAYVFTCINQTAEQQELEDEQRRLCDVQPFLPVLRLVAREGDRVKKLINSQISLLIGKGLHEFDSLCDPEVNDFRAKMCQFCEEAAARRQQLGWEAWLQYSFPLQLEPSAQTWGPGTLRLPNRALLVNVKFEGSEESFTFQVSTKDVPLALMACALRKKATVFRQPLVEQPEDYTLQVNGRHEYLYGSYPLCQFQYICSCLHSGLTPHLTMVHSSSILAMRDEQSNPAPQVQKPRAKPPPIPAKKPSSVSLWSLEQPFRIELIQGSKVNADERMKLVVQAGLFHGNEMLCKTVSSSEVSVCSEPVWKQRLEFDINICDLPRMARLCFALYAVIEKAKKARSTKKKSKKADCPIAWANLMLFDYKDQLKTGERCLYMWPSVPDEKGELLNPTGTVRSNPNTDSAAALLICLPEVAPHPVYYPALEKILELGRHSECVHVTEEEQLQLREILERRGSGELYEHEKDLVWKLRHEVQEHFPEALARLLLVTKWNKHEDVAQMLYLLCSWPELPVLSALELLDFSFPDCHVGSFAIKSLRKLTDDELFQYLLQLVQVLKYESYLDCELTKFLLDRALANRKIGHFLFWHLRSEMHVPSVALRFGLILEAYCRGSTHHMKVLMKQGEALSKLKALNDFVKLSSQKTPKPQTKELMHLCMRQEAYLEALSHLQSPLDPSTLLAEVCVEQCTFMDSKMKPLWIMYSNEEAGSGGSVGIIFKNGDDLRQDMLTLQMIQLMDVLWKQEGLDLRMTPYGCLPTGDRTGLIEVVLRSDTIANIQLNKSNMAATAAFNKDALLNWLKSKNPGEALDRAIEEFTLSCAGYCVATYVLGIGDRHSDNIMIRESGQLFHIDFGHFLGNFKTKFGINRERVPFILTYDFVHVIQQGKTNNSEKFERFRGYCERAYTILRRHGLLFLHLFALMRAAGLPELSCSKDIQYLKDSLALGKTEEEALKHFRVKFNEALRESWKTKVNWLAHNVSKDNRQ

[4] = biological target: T2, Phosphatidylinositol 4,5-bisphosphate 3-kinase catalytic subunit delta isoform (Homo sapiens) (UniProt O00329); test: Inhibition of PI3Kdelta (unknown origin) at 1 uM using Biotin-S11S12 as substrate after 120 mins in presence of ATP by ADPGlo luminescence assay
T2 sequence (whole entry): T1 sequence (O00329 whole entry)

[5] = biological target: Phosphatidylinositol 4,5-bisphosphate 3-kinase catalytic subunit alpha isoform (Homo sapiens, UniProt P42336); test: Inhibition of PI3Kalpha (unknown origin) using Biotin-S11S12 as substrate after 60 mins in presence of ATP by Kinase Glo luminescence assay
[6] = biological target: Phosphatidylinositol 4,5-bisphosphate 3-kinase catalytic subunit beta isoform (Homo sapiens, UniProt P42338); test: Inhibition of PI3Kbeta (unknown origin) using Biotin-S11S12 as substrate after 60 mins in presence of ATP by ADPGlo luminescence assay
[7] = biological target: Phosphatidylinositol 4,5-bisphosphate 3-kinase catalytic subunit gamma isoform (Homo sapiens, UniProt P48736); test: Inhibition of PI3Kgamma (unknown origin) using Biotin-S11S12 as substrate after 60 mins in presence of ATP by ADPGlo luminescence assay
Homo sapiens [8] = species on record: Homo sapiens; test: Selectivity index, ratio of IC50 for PI3Kalpha (unknown origin) to IC50 for PI3Kdelta (unknown origin)
Homo sapiens [9] = species on record: Homo sapiens; test: Selectivity index, ratio of IC50 for PI3Kbeta (unknown origin) to IC50 for PI3Kdelta (unknown origin)
Homo sapiens [10] = species on record: Homo sapiens; test: Selectivity index, ratio of IC50 for PI3Kgamma (unknown origin) to IC50 for PI3Kdelta (unknown origin)
SU-DHL-6 = test: Growth inhibition of human SU-DHL6 cells by CellTiter-Glo assay; assay type: functional
[11] = AUClast in Sprague-Dawley rat at 1 mg/kg, iv; assay type: ADME, organism-based; parameters: dose 1 mg/kg, time 0 - last, route intravenous; conditions: in vivo
[12] = AUC (0 to infinity) in Sprague-Dawley rat at 1 mg/kg, iv; assay type: ADME, organism-based; parameters: dose 1 mg/kg, time infinity, route intravenous; conditions: in vivo
[13] = Volume of distribution at steady state in Sprague-Dawley rat at 1 mg/kg, iv; assay type: ADME, organism-based; conditions: in vivo, read-out: Vdss
[14] = Terminal half-life in Sprague-Dawley rat at 1 mg/kg, iv; assay type: ADME, organism-based; conditions: in vivo, read-out: beta t1/2 (converted)
[15] = AUC (0 to infinity) in Sprague-Dawley rat at 10 mg/kg, po; assay type: ADME, organism-based; parameters: dose 10 mg/kg, time infinity, route oral; conditions: in vivo
[16] = Terminal half-life in Sprague-Dawley rat at 10 mg/kg, po; assay type: ADME, organism-based; conditions: in vivo, read-out: beta t1/2 (converted)
[17] = Oral bioavailability in Sprague-Dawley rat at 10 mg/kg; assay type: ADME, organism-based; conditions: in vivo
[18] = MRT (infinity) in Sprague-Dawley rat at 1 mg/kg, iv; assay type: ADME, organism-based; conditions: in vivo
[19] = Tmax in Sprague-Dawley rat at 10 mg/kg, po; assay type: ADME, organism-based; conditions: in vivo
[20] = Cmax in Sprague-Dawley rat at 10 mg/kg, po; assay type: ADME, organism-based; parameters: dose 10 mg/kg, route oral; conditions: in vivo
[21] = Plasma concentration in Sprague-Dawley rat at 1 mg/kg, iv after 0.083 hrs; assay type: ADME, organism-based
[22] = Plasma concentration in Sprague-Dawley rat at 1 mg/kg, iv after 0.25 hrs; assay type: ADME, organism-based
[23] = Plasma concentration in Sprague-Dawley rat at 1 mg/kg, iv after 0.5 hrs; assay type: ADME, organism-based
[24] = Plasma concentration in Sprague-Dawley rat at 1 mg/kg, iv after 1 hrs; assay type: ADME, organism-based
[25] = Plasma concentration in Sprague-Dawley rat at 1 mg/kg, iv after 2 hrs; assay type: ADME, organism-based
[26] = Plasma concentration in Sprague-Dawley rat at 1 mg/kg, iv after 4 hrs; assay type: ADME, organism-based
[27] = Plasma concentration in Sprague-Dawley rat at 1 mg/kg, iv after 8 hrs; assay type: ADME, organism-based
[28] = Plasma concentration in Sprague-Dawley rat at 1 mg/kg, iv after 24 hrs; assay type: ADME, organism-based; conditions: in vivo, BLD = below limit of detection
[29] = Plasma concentration in Sprague-Dawley rat at 10 mg/kg, po after 0.083 hrs; assay type: ADME, organism-based
[30] = Plasma concentration in Sprague-Dawley rat at 10 mg/kg, po after 0.25 hrs; assay type: ADME, organism-based
[31] = Plasma concentration in Sprague-Dawley rat at 10 mg/kg, po after 0.5 hrs; assay type: ADME, organism-based
[32] = Plasma concentration in Sprague-Dawley rat at 10 mg/kg, po after 1 hrs; assay type: ADME, organism-based
[33] = Plasma concentration in Sprague-Dawley rat at 10 mg/kg, po after 2 hrs; assay type: ADME, organism-based
[34] = Plasma concentration in Sprague-Dawley rat at 10 mg/kg, po after 4 hrs; assay type: ADME, organism-based
[35] = Plasma concentration in Sprague-Dawley rat at 10 mg/kg, po after 8 hrs; assay type: ADME, organism-based
[36] = Plasma concentration in Sprague-Dawley rat at 10 mg/kg, po after 24 hrs; assay type: ADME, organism-based; conditions: in vivo, BLD = below limit of detection

Chain of Phosphatidylinositol 4,5-bisphosphate 3-kinase catalytic subunit beta isoform (P42338 whole entry, canonical isoform): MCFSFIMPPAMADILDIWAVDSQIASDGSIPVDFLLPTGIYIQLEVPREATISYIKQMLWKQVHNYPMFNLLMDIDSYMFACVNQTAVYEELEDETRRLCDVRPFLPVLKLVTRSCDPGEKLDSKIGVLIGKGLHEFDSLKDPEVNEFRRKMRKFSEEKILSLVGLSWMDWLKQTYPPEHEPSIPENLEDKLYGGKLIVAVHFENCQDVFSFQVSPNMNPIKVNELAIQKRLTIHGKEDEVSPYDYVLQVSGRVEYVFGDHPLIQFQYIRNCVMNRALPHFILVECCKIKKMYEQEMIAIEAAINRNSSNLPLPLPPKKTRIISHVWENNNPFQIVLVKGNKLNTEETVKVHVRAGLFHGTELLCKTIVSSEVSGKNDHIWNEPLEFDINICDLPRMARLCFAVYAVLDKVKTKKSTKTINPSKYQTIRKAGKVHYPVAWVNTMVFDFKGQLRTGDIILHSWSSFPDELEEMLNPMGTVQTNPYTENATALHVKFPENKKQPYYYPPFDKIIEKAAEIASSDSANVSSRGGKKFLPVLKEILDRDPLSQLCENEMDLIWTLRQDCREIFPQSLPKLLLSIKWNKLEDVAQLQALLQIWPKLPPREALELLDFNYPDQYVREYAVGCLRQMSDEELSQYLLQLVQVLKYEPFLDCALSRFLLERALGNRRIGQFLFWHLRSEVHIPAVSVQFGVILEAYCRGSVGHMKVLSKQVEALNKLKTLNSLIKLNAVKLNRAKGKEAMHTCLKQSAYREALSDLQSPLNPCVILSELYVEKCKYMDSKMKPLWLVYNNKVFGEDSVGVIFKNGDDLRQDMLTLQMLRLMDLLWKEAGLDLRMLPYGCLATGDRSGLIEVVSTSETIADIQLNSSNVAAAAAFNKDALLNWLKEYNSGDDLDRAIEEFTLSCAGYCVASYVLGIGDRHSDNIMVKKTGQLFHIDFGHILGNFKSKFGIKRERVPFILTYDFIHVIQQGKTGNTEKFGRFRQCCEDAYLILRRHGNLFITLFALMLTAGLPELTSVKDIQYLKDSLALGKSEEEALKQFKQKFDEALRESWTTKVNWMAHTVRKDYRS
Chain of Phosphatidylinositol 4,5-bisphosphate 3-kinase catalytic subunit alpha isoform (P42336 whole entry, canonical isoform): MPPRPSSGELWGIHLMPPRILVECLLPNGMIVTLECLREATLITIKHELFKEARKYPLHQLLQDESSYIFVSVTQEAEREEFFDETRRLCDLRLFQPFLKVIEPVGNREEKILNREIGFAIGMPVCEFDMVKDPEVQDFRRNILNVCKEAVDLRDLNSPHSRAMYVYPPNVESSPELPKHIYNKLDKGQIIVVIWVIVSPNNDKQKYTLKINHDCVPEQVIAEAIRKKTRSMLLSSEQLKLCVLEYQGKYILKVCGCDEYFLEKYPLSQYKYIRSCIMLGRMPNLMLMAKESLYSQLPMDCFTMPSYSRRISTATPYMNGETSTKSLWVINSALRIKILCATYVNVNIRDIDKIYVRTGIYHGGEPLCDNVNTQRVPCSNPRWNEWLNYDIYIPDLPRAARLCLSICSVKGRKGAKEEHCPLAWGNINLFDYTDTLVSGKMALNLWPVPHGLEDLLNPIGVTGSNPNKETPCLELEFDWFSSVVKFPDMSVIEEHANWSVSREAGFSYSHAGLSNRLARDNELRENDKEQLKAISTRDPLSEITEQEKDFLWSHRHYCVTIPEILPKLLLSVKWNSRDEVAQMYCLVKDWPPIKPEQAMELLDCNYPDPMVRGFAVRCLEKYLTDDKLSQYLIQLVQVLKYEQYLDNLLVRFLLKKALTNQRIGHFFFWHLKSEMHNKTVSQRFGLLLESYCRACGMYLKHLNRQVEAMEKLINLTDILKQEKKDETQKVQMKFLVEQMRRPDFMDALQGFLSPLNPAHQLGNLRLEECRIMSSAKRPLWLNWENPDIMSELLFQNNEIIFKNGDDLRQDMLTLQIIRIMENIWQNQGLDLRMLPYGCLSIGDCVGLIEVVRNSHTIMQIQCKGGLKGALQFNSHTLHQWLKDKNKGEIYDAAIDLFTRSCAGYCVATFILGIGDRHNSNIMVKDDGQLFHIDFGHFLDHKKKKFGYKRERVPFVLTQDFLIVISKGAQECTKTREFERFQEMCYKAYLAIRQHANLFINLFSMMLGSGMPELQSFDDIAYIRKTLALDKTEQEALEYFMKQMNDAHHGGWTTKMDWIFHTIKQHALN
Chain of Phosphatidylinositol 4,5-bisphosphate 3-kinase catalytic subunit gamma isoform (P48736 whole entry, canonical isoform): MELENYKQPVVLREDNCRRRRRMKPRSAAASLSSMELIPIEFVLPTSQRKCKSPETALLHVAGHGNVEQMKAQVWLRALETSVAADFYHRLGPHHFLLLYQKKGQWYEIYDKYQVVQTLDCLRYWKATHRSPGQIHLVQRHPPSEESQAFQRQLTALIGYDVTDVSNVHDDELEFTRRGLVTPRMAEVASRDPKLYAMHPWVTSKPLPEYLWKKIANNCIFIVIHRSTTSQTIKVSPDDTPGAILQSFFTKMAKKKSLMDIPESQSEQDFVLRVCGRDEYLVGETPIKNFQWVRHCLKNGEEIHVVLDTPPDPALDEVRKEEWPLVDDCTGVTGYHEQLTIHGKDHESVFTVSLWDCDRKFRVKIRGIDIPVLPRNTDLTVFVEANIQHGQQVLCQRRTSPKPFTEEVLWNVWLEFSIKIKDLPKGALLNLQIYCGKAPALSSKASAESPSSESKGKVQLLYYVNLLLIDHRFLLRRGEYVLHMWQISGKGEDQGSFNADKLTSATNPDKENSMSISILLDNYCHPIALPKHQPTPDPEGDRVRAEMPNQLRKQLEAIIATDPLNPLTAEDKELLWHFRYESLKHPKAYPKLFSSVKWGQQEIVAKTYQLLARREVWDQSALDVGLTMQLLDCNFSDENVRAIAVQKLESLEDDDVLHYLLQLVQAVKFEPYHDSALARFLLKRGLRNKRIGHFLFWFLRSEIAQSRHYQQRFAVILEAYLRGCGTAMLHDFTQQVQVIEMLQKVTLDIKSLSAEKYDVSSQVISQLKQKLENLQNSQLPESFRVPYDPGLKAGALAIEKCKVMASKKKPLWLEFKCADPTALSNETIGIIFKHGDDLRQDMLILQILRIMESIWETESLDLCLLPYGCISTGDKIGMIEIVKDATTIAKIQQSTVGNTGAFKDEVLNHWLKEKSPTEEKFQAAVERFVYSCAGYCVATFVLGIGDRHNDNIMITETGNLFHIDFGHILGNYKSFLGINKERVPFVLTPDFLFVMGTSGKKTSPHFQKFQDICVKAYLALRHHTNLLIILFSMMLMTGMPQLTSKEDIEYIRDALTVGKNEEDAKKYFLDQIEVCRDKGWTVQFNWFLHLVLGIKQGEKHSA

## COc1ccc(-c2nn(Cc3nc4cccc(F)c4c(=O)n3-c3c(C)cccc3C)c3ncnc(N)c23)cc1OC
[1]
  AUC(0-t): 3530 ng·h/mL
[2]
  clearance: 16.5 mL/min/kg
[3]
  IC50: 8.4 nM
[4]
  inhibition: 96.8%
[5]
  IC50: 11800 nM
[6]
  IC50: 6960 nM
[7]
  IC50: 62 nM
Homo sapiens [8]
  Ratio IC50: 1410
Homo sapiens [9]
  Ratio IC50: 828
Homo sapiens [10]
  Ratio IC50: 7
SU-DHL-6
  GI50: 222 nM
[11]
  AUC(0-t): 1010 ng·h/mL
[12]
  AUC(0-inf): 1020 ng·h/mL
[13]
  Vd: 0.45 L/kg
[14]
  half-life: 37.2 min
[15]
  AUC(0-inf): 3550 ng·h/mL
[16]
  half-life: 101 min
[17]
  bioavailability: 34.9%
[18]
  MRT inf: 30.6 min
[19]
  Tmax: 50 min
[20]
  Cmax: 387 ng/mL
[21]
  concentration at 0.083 h: 1020 ng/mL
[22]
  concentration at 0.25 h: 541 ng/mL
[23]
  concentration at 0.5 h: 250 ng/mL
[24]
  concentration at 1 h: 64.3 ng/mL
[25]
  concentration at 2 h: 13.1 ng/mL
[26]
  concentration at 4 h: 2.58 ng/mL
[27]
  concentration at 8 h: 1.83 ng/mL
[28]
  Cp: Bld
[29]
  concentration at 0.083 h: 198 ng/mL
[30]
  concentration at 0.25 h: 343 ng/mL
[31]
  concentration at 0.5 h: 379 ng/mL
[32]
  concentration at 1 h: 318 ng/mL
[33]
  concentration at 2 h: 192 ng/mL
[34]
  concentration at 4 h: 9.86 ng/mL
[35]
  concentration at 8 h: 6.5 ng/mL
[36]
  Cp: Bld

## Cc1ccccc1-n1c(Cn2nc(-c3ccc4[nH]ccc4c3)c3c(N)ncnc32)nc2cccc(F)c2c1=O
[3]
  IC50: 16 nM
[4]
  inhibition: 94.7%

## Cc1cccc(C)c1-n1c(Cn2nc(-c3ccc4c(c3)OCO4)c3c(N)ncnc32)nc2cccc(F)c2c1=O
[3]
  IC50: 84 nM
[4]
  inhibition: 89.1%

## Cc1cccc(C)c1-n1c(Cn2nc(-c3ccc4[nH]ccc4c3)c3c(N)ncnc32)nc2cccc(F)c2c1=O
[1]
  AUC(0-t): 808 ng·h/mL
[2]
  clearance: 36 mL/min/kg
[3]
  IC50: 8.6 nM
[4]
  inhibition: 96.8%
[5]
  IC50: 31300 nM
[6]
  IC50: 3370 nM
[7]
  IC50: 363 nM
Homo sapiens [8]
  Ratio IC50: 3640
Homo sapiens [9]
  Ratio IC50: 392
Homo sapiens [10]
  Ratio IC50: 42
SU-DHL-6
  GI50: 149 nM
[11]
  AUC(0-t): 471 ng·h/mL
[12]
  AUC(0-inf): 473 ng·h/mL
[13]
  Vd: 1.11 L/kg
[14]
  half-life: 50.4 min
[15]
  AUC(0-inf): 820 ng·h/mL
[16]
  half-life: 78.6 min
[17]
  bioavailability: 17.3%
[18]
  MRT inf: 30.6 min
[19]
  Tmax: 50 min
[20]
  Cmax: 387 ng/mL
[21]
  concentration at 0.083 h: 1020 ng/mL
[22]
  concentration at 0.25 h: 541 ng/mL
[23]
  concentration at 0.5 h: 250 ng/mL
[24]
  concentration at 1 h: 64.3 ng/mL
[25]
  concentration at 2 h: 13.1 ng/mL
[26]
  concentration at 4 h: 2.58 ng/mL
[27]
  concentration at 8 h: 1.83 ng/mL
[28]
  Cp: Bld
[29]
  concentration at 0.083 h: 198 ng/mL
[30]
  concentration at 0.25 h: 343 ng/mL
[31]
  concentration at 0.5 h: 379 ng/mL
[32]
  concentration at 1 h: 318 ng/mL
[33]
  concentration at 2 h: 192 ng/mL
[34]
  concentration at 4 h: 9.86 ng/mL
[35]
  concentration at 8 h: 6.5 ng/mL
[36]
  Cp: Bld

## Cc1ccccc1-n1c(Cn2nc(-c3ccc4c(c3)OCO4)c3c(N)ncnc32)nc2cccc(F)c2c1=O
[3]
  IC50: 106 nM
[4]
  inhibition: 89.6%

## Cc1cccc(C)c1-n1c(Cn2nc(-c3ccc4cc(O)ccc4c3)c3c(N)ncnc32)nc2cccc(F)c2c1=O
[3]
  IC50: 416 nM
[4]
  inhibition: 77.3%

## COc1ccc(-c2nn(Cc3nc4cccc(F)c4c(=O)n3-c3ccccc3C)c3ncnc(N)c23)cn1
[3]
  IC50: 31 nM
[4]
  inhibition: 92.7%

## CC[C@H](Nc1ncnc2[nH]cnc12)c1nc2cccc(F)c2c(=O)n1-c1ccccc1 [IDELALISIB]
[4]
  inhibition: 91.9%
SU-DHL-6
  GI50: 42 nM

## Cc1cccc(C)c1-n1c(Cn2nc(-c3cnc4ccccc4c3)c3c(N)ncnc32)nc2cccc(F)c2c1=O
[3]
  IC50: 81 nM
[4]
  inhibition: 92%

## Cc1ccccc1-n1c(Cn2nc(-c3ccc4cc(O)ccc4c3)c3c(N)ncnc32)nc2cccc(F)c2c1=O
[3]
  IC50: 227 nM
[4]
  inhibition: 73%

## Cc1cccc(C)c1-n1c(Cn2nc(-c3cccc(OC(F)(F)F)c3)c3c(N)ncnc32)nc2cccc(F)c2c1=O
[4]
  inhibition: 29.6%

## Cc1ccccc1-n1c(Cn2nc(-c3cnc4ccccc4c3)c3c(N)ncnc32)nc2cccc(F)c2c1=O
[3]
  IC50: 86 nM
[4]
  inhibition: 90%

## COc1ccc(-c2nn(Cc3nc4cccc(F)c4c(=O)n3-c3ccccc3C)c3ncnc(N)c23)cc1OC
[3]
  IC50: 26 nM
[4]
  inhibition: 90.8%

## Cc1ccccc1-n1c(Cn2nc(-c3cccc(OC(F)(F)F)c3)c3c(N)ncnc32)nc2cccc(F)c2c1=O
[4]
  inhibition: 70.8%

## COc1ccc(-c2nn(Cc3nc4cccc(F)c4c(=O)n3-c3c(C)cccc3C)c3ncnc(N)c23)cn1
[3]
  IC50: 41 nM
[4]
  inhibition: 94.7%

From ChEMBL document CHEMBL4229370, “Discovery of novel quinazolinone derivatives as high potent and selective PI3Kδ and PI3Kδ/γ inhibitors” (Eur J Med Chem, 2018)
